Activity calls are given as the source filed them.
How the values were obtained:
Format in all cases: functional, organism-based
[1] = tested on: Fusarium verticillioides; experiment: Antimicrobial activity against Fusarium verticillioides at 100 ug/disk after 48 hrs by disk diffusion method
[2] = tested on: Bacillus subtilis; experiment: Antimicrobial activity against Bacillus subtilis at 100 ug/disk after 24 hrs by disk diffusion method
[3] = tested on: Staphylococcus aureus; experiment: Antimicrobial activity against Staphylococcus aureus at 100 ug/disk after 24 hrs by disk diffusion method
[4] = tested on: Aspergillus flavus; experiment: Antimicrobial activity against Aspergillus flavus at 100 ug/disk after 48 hrs by disk diffusion method
[5] = tested on: Escherichia coli; experiment: Antimicrobial activity against Escherichia coli at 100 ug/disk after 24 hrs by disk diffusion method
[6] = tested on: Candida albicans; experiment: Antimicrobial activity against Candida albicans at 100 ug/disk after 48 hrs by disk diffusion method
[7] = tested on: Escherichia coli; experiment: Antimicrobial activity against Escherichia coli at 50 ug/disk after 24 hrs by disk diffusion method
[8] = tested on: Candida albicans; experiment: Antimicrobial activity against Candida albicans at 50 ug/disk after 48 hrs by disk diffusion method
[9] = tested on: Bacillus subtilis; experiment: Antimicrobial activity against Bacillus subtilis at 50 ug/disk after 24 hrs by disk diffusion method
[10] = tested on: Staphylococcus aureus; experiment: Antimicrobial activity against Staphylococcus aureus at 50 ug/disk after 24 hrs by disk diffusion method

Measured: Activity

C[C@H]1[C@H]2[C@H](OC[C@@H]2C(=O)[C@@H](C)[C@@H](C)O)O[C@H]1C
inactive: [1] | [2] | [3] | [4] | [5] | [6]

CCC(C)C(=O)[C@@H]1CO[C@@H](C)[C@@H](C)[C@H]1CO (mixture of isomers)
inactive: [1] | [2] | [3] | [4] | [5] | [6]

CC[C@@](C)(C(=O)CCO)C1=CC(=O)[C@@H](C)[C@H](C)O1
inactive: [7] | [8] | [9] | [10]

CC[C@H](C)C(=O)[C@H]1[C@H](CO)[C@H](C)[C@H](C)O[C@@H]1O
inactive: [1] | [2] | [3] | [4] | [5] | [6]

CC[C@@](C)(C(=O)CCO)C1=CC(=O)[C@H](C)[C@H](C)O1
inactive: [7] | [8] | [9] | [10]

C[C@H](C(=O)[C@H]1CO[C@@]2(C)OC[C@@H]1[C@@H]2C)[C@@H](C)O
inactive: [1] | [2] | [3] | [4] | [5] | [6]

— ChEMBL document CHEMBL3813602, “Disseminins and Spiciferone Analogues: Polyketide-Derived Metabolites from a Fungicolous Isolate of Pestalotiopsis disseminata” (J Nat Prod, 2016)
